The values that follow come from paper PMC10817945, “Design of a novel analogue peptide with potent antibiofilm activities against Staphylococcus aureus based upon a sapecin B-derived peptide” (Scientific Reports, 2024).

Values after ≈ are worked out from the molar mass of the structure shown. Values joined by “and” are separate entries in the source; they are usually repeats but may differ in a detail not shown here. Identical values can stand only once. Like-named read-outs stand apart in the source and are kept apart here.

Data set [1] has as its system S. aureus isolates. Nature of the data set: Kirby-Bauer disk diffusion antimicrobial susceptibility testing. Further: key: R: Resistant; S: Susceptible. Type of data set: cell-based, Staphylococcus aureus. An excerpt: Three MRSA, two MSSA clinical isolates, and one S. aureus reference strain (ATCC 25923) were investigated in this study. […] The presence of the mecA/mecC gene was studied by PCR in all cefoxitin resistant isolates[42],[43].

In data set [2] the test system is one MRSA and reference strain (ATCC25923). The data set is described as follows: Time-kill kinetics assay.
Description: The peptide-free control was included for each strain. Following incubation at 37 °C for 0, 0.25, 0.5, 1, 2, 4, 5, and 24 h, each sample was serially diluted, plated onto Mueller–Hinton (MH) agar (Merck, Germany) plates and incubated at 37 °C. The viable plate count method was performed after incubation for 24 h and the counts were expressed as Log CFU/ml[44].
In data set [3] the test system is S. aureus isolates. Nature of the data set: microbe, parasite or virus in culture. Type of data set: cell-based, Staphylococcus aureus. As to the method: (§1) Minimum inhibitory concentrations (MIC) of KLK, mKLK, and vancomycin were determined using microdilution broth assay according to clinical and laboratory standards institute (CLSI) guidelines with some modifications. Briefly, overnight cultures were diluted in Muller-Hinton broth (MHB; Merck, Germany) to achieve a final density of 5 × 10^5 CFU/ml. A volume of 100 μl of bacterial suspension was added to wells of sterile 96-well plates containing 100 μl of two-fold peptide dilutions, ranging from 0.25 to 256 µg/ml. Vancomycin was used as a positive control in this assay. […] MBC was determined by removing samples from wells with no visible growth, serially diluting, and plating on Mueller Hinton (MH) agar plates for CFU counting.

Data set [4] deals with S. aureus isolates. Type of data set: cell-based, Staphylococcus aureus. The protocol:
as §1

For the next data set, the system named is Human red blood cells. Nature of the data set: Hemolysis assay. Particulars: human erythrocytes, 1 h, 37 °C. The protocol: The assay was performed using fresh human blood samples containing citrate phosphate dextrose anticoagulant collected from a blood bank (Iranian Blood Transfusion Organization). Human red blood cells (RBC) were centrifuged at 1700×g for 5 min; then the supernatant was removed and the erythrocyte pellet was diluted 1:100 in PBS to obtain a 1% erythrocyte suspension. […] Then, 50 μl of the 1% erythrocyte suspension and 50 μl of the peptides were mixed and added to wells of a 96-well polypropylene conical bottom microplate and incubated at 37 °C for 1 h. Following centrifugation of the samples at 1700×g for 5 min, 50 μl of the supernatant was transferred to wells of a 96-well flat-bottom plate for the absorbance measurement at 405 nm in a microplate reader. Identical volumes of Triton X-100 (1%) and PBS were used as positive and negative controls, respectively. The selectivity indexes (SI) were also determined as a toxicity indicator.

The subject of data set [5] is clinical Salmonella isolates. On the set-up: method as in PMID 34361810. The following applies: cited from earlier work.
The subject of data set [6] is drug resistant Mycobacterium abscessus isolates. On the set-up: method as in ref 33 (Sudadech et al.). The following applies: ref 33 (Sudadech et al.), cited from earlier work.

Take `CO[C@H]1/C=C/O[C@@]2(C)Oc3c(C)c(O)c4c(O)c(c(/C=N/N5CCN(C)CC5)c(O)c4c3C2=O)NC(=O)/C(C)=C\C=C\[C@H](C)[C@H](O)[C@@H](C)[C@@H](O)[C@@H](C)[C@H](OC(C)=O)[C@@H]1C` [RP, Rifampicin]: the Antimicrobial susceptibility testing result in the data set on S. aureus isolates [1] (MRSA-1), in the data set with S. aureus isolates [1] (MRSA-2), in the data set with S. aureus isolates [1] (MRSA-3), with S. aureus isolates [1] (MSSA-1) and in the data set on S. aureus isolates [1] (MSSA-2) was “S” in each case.

On to `CO[C@@]1(NC(=O)Cc2cccs2)C(=O)N2C(C(=O)O)=C(COC(N)=O)CS[C@@H]21` [FOX, Cefoxicitin], for which the Antimicrobial susceptibility testing entry with S. aureus isolates [1] (MRSA-1) was “R”; in the data set with S. aureus isolates [1] (MRSA-2), “R”; in the data set on S. aureus isolates [1] (MRSA-3), “R”; in the data set with S. aureus isolates [1] (MSSA-1), “S”; in the data set with S. aureus isolates [1] (MSSA-2), “S”.

Take `CC1(C)S[C@@H]2[C@H](NC(=O)[C@H](N)c3ccccc3)C(=O)N2[C@H]1C(=O)O` [AMP, Ampicilln]: the Antimicrobial susceptibility testing result in the data set on S. aureus isolates [1] (MRSA-1) is given as “R”; with S. aureus isolates [1] (MRSA-2), “R”; with S. aureus isolates [1] (MRSA-3), “R”; with S. aureus isolates [1] (MSSA-1), “S”; in the data set with S. aureus isolates [1] (MSSA-2), “S”.

With `O=C(N[C@H](CO)[C@H](O)c1ccc([N+](=O)[O-])cc1)C(Cl)Cl` [C, Chloramphenicol], the Antimicrobial susceptibility testing result with S. aureus isolates [1] (MRSA-1), in the data set on S. aureus isolates [1] (MRSA-2), with S. aureus isolates [1] (MRSA-3), in the data set on S. aureus isolates [1] (MSSA-1) and in the data set on S. aureus isolates [1] (MSSA-2) was “S” in each case.

With `CN[C@H](CC(C)C)C(=O)N[C@H]1C(=O)N[C@@H](CC(N)=O)C(=O)N[C@H]2C(=O)N[C@H]3C(=O)N[C@H](C(=O)N[C@H](C(=O)O)c4cc(O)cc(O)c4-c4cc3ccc4O)[C@H](O)c3ccc(c(Cl)c3)Oc3cc2cc(c3O[C@@H]2O[C@H](CO)[C@@H](O)[C@H](O)[C@H]2O[C@H]2C[C@](C)(N)[C@H](O)[C@H](C)O2)Oc2ccc(cc2Cl)[C@H]1O` [vancomycin, Vancomycin], the “time after which no regrowth was observed” value in data set [2] (ATCC 25923, 1 × MIC (0.25 μg/ml)) is reported as 24 h; in data set [2] (ATCC 25923, 2 × MIC) it was 24 h; in data set [2] (MRSA, 1 × MIC), 24 h. The “reduction in viable cell count” value in data set [2] (ATCC 25923, 1 × MIC, during 4 h) was ~ 3 log; in data set [2] (ATCC 25923, 2 × MIC, within 4 h), ~ 4 log; in data set [2] (MRSA, 1 × MIC (0.5 μg/ml), during 5 h), ~ 2 log; in data set [2] (MRSA, 2 × MIC (1 μg/ml), within 4 h), ~ 2 log; in data set [2] (MRSA, 2 × MIC (1 μg/ml), within 5 h) it was roughly 3 log. In addition, the “time after which no growth was observed” value in data set [2] (MRSA, 2 × MIC (1 μg/ml)) was determined as 24 h. Also, the MIC in the data set on S. aureus isolates [3] (ATCC25923) is 0.25 µg/mL (≈ 0.173 µM); against S. aureus isolates [3] (MRSA-1) it was 0.25 µg/mL (≈ 0.173 µM); in the data set on S. aureus isolates [3] (MRSA-2), 0.5 µg/mL (≈ 0.345 µM); against S. aureus isolates [3] (MRSA-3), 0.5 µg/mL (≈ 0.345 µM); against S. aureus isolates [3] (MSSA-1) it was 0.25 µg/mL (≈ 0.173 µM); in the data set on S. aureus isolates [3] (MSSA-2), 0.25 µg/mL (≈ 0.173 µM). The MIC with S. aureus isolates [3] (Staphylococcus aureus) is 0.25 to 0.5 µg/mL (≈ 0.173 to 0.345 µM). For the same molecule, the minimal bactericidal concentration (MBC) in the data set on S. aureus isolates [4] (ATCC25923) came out at 0.25 µg/mL (≈ 0.173 µM); against S. aureus isolates [4] (MRSA-1) it was 0.5 µg/mL (≈ 0.345 µM); against S. aureus isolates [4] (MRSA-2) it was 0.5 µg/mL (≈ 0.345 µM); with S. aureus isolates [4] (MRSA-3), 0.5 µg/mL (≈ 0.345 µM); against S. aureus isolates [4] (MSSA-1) it was 0.25 µg/mL (≈ 0.173 µM); in the data set on S. aureus isolates [4] (MSSA-2), 0.25 µg/mL (≈ 0.173 µM). Also, the Antimicrobial susceptibility testing result in the data set with S. aureus isolates [1] (MRSA-1), in the data set with S. aureus isolates [1] (MRSA-2), in the data set on S. aureus isolates [1] (MRSA-3), in the data set on S. aureus isolates [1] (MSSA-1) and with S. aureus isolates [1] (MSSA-2) was “S” each time.

In the case of `CC[C@H](C)[C@H](NC(=O)[C@H](CCCCN)NC(=O)[C@H](CCC(=O)O)NC(=O)[C@H](CCCCN)NC(=O)[C@H](CO)NC(=O)[C@H](CCCCN)NC(=O)[C@H](CCCNC(=N)N)NC(=O)[C@H](Cc1ccccc1)NC(=O)[C@H](Cc1ccccc1)NC(=O)[C@H](CC(=O)O)NC(=O)CNC(=O)[C@H](CC(C)C)NC(=O)[C@@H](N)CC(C)C)C(=O)NCC(=O)N[C@@H](CCCCN)C(=O)N[C@@H](CCC(=O)O)C(=O)N[C@@H](Cc1ccccc1)C(=O)N[C@@H](CCCCN)C(=O)N[C@@H](CCCNC(=N)N)C(=O)N[C@H](C(=O)N[C@H](C(=O)N[C@@H](CCC(N)=O)C(=O)N[C@@H](CCCNC(=N)N)C(=O)N[C@H](C(=O)N[C@@H](CCCCN)C(=O)N[C@@H](CC(=O)O)C(=O)N[C@@H](Cc1ccccc1)C(=O)N[C@@H](CC(C)C)C(=O)N[C@@H](CCCNC(=N)N)C(=O)N[C@@H](CC(N)=O)C(=O)N[C@@H](CC(C)C)C(=O)N[C@H](C(=O)N1CCC[C@H]1C(=O)N[C@@H](CCCNC(=N)N)C(=O)N[C@H](C(=O)N[C@@H](CCC(=O)O)C(=O)N[C@@H](CO)C(=O)O)[C@@H](C)O)C(C)C)[C@@H](C)CC)C(C)C)[C@@H](C)CC` [LL-37], the HC50 in the data set on Human red blood cells is 150 µM and 673.5 µg/ml.

On to `CC(=O)NC[C@H]1CN(c2ccc(N3CCOCC3)c(F)c2)C(=O)O1` [LZD, Linezolide], for which the Antimicrobial susceptibility testing entry in the data set on S. aureus isolates [1] (MRSA-1), in the data set on S. aureus isolates [1] (MRSA-2), in the data set on S. aureus isolates [1] (MRSA-3), in the data set with S. aureus isolates [1] (MSSA-1) and with S. aureus isolates [1] (MSSA-2) was “S” each time.

Amoxicillin/clavulanic acid [AMC]: the Antimicrobial susceptibility testing entry is reported as “R” with S. aureus isolates [1] (MRSA-1); “R” in the data set on S. aureus isolates [1] (MRSA-2); “R” in the data set with S. aureus isolates [1] (MRSA-3); “S” in the data set with S. aureus isolates [1] (MSSA-1); “S” in the data set on S. aureus isolates [1] (MSSA-2).

Take `CNC(C)C1CCC(N)C(OC2C(N)CC(N)C(OC3OCC(C)(O)C(NC)C3O)C2O)O1` (centres unmarked) [GEN, Gentamicin]: the Antimicrobial susceptibility testing entry in the data set with S. aureus isolates [1] (MRSA-1), in the data set on S. aureus isolates [1] (MRSA-2), in the data set with S. aureus isolates [1] (MRSA-3), in the data set with S. aureus isolates [1] (MSSA-1) and with S. aureus isolates [1] (MSSA-2) was “S” in each case.

`CO/N=C(\C(=O)N[C@@H]1C(=O)N2C(C(=O)[O-])=C(C[N+]3(C)CCCC3)CS[C@H]12)c1csc(N)n1` [FEP, Cefepime]: the Antimicrobial susceptibility testing result in the data set with S. aureus isolates [1] (MRSA-1) was “R”; in the data set with S. aureus isolates [1] (MRSA-2), “R”; in the data set on S. aureus isolates [1] (MRSA-3), “R”; in the data set on S. aureus isolates [1] (MSSA-1) it was “S”; in the data set with S. aureus isolates [1] (MSSA-2), “S”.

Take `CN(C)[C@@H]1C(O)=C(C(N)=O)C(=O)[C@@]2(O)C(O)=C3C(=O)c4c(O)cccc4[C@@](C)(O)[C@H]3C[C@@H]12` [TE, Tetracycline]: the Antimicrobial susceptibility testing result with S. aureus isolates [1] (MRSA-1), in the data set with S. aureus isolates [1] (MRSA-2), in the data set with S. aureus isolates [1] (MRSA-3), in the data set with S. aureus isolates [1] (MSSA-1) and in the data set with S. aureus isolates [1] (MSSA-2) was “R” in each case.

KLKLLLLLKL [KLK1, variant of KLK]: the values for the MIC in data set [5] and in data set [6] (drug resistant Mycobacterium abscessus isolates) were greater than 256 µM and less than 50 µg/mL, respectively. Besides, in data set [6] (against 62.5% of the tested isolates within 24 h), the killing is listed as ~ 99%.

On to Trimethoprim/sulphamethoxazole [SXT], for which the Antimicrobial susceptibility testing result in the data set with S. aureus isolates [1] (MRSA-1) was “S”; with S. aureus isolates [1] (MRSA-2), “S”; with S. aureus isolates [1] (MRSA-3), “R”; in the data set with S. aureus isolates [1] (MSSA-1) it was “S”; with S. aureus isolates [1] (MSSA-2) it was “S”.

On to `CC[C@H]1OC(=O)[C@H](C)[C@@H](O[C@H]2C[C@@](C)(OC)[C@@H](O)[C@H](C)O2)[C@H](C)[C@@H](O[C@@H]2O[C@H](C)C[C@H](N(C)C)[C@H]2O)[C@](C)(O)C[C@@H](C)C(=O)[C@H](C)[C@@H](O)[C@]1(C)O` [E, Erythromycin], for which the Antimicrobial susceptibility testing result in the data set with S. aureus isolates [1] (MRSA-1), with S. aureus isolates [1] (MRSA-2), in the data set with S. aureus isolates [1] (MRSA-3), with S. aureus isolates [1] (MSSA-1) and in the data set with S. aureus isolates [1] (MSSA-2) was “S” each time.
